Data: patent publication US20050175550A1, “Compositions for oral use” (priority 2000, published 2005)
Converted amounts (≈) assume the structure as drawn.

Experiments:
Test in all cases: MIC by agar plate dilution method on standard strains (Example 3)
Type in all cases: cell-based
Details in all cases: read-out: MIC
[1] = test system: Bacillus subtilis ATCC6633
Procedure: (§1) Drug solutions at a concentration 10 times as high as the maximum applicable concentration were prepared as original solutions of test drugs given in Table 2 (as to solvents used for this purpose, reference should be made also to Table 2). Serial two-fold dilution series of the original solutions were prepared at desired stages, and 1 ml each of the diluted drug solutions was added to 9 ml of media given in Table 3 to prepare drug plates. […] • 1) Bacterial solutions stocked at −80° C. were inoculated on agar media (as to media used, reference should be made to Table 3), and then incubated at 37° C. overnight. When desired, subculturing was conducted once more on the same agar media (by overnight incubation at 37° C.). • 2) Colonies growing on the agar media were sampled by a platinum loop, suspended in liquid media (reference should be made to Table 3) and statically incubated at 37° C. for 18 hours (preculturing). • 3) Preculturing was continued up to McFarland 0.5 (McFarland 0.5=about 10^8 CFU/ml), and then the culture broths were diluted with Muellar Hinton Broth to make 10^6 CFU/ml. 5 μl each of the diluted solutions were inoculated on the above-mentioned drug plates by an inoculator Microplanter. […] Thus, bacterial solutions at about 10^8 CFU/ml can be easily prepared by use of McFarland 0.5. Bacterial solutions at such a turbidity are commercially available, but can be easily prepared.

[2] = test system: Escherichia coli ATCC25922
Procedure: as §1

[3] = test system: Staphylococcus aureus ATCC29247
Procedure: as §1

[4] = test system: Streptococcus pyogenes ATCC12353
Procedure: as §1

[5] = test system: Enterococcus faecalis ATCC29247
Procedure: as §1

[6] = test system: Haemophilus influenzae ATCC33533
Procedure: as §1

[7] = test system: Klebsiella pneumoniae ATCC700603
Procedure: as §1

[8] = test system: Haemophilus influenzae ATCC49766
Procedure: as §1

[9] = test system: Streptococcus pneumoniae ATCC6301
Procedure: as §1

[10] = test system: Streptococcus pneumoniae ATCC49619
Procedure: as §1

[11] = test system: Moraxella (Branhamella) catarrhalis ATCC43617
Procedure: as §1

[12] = test system: Haemophilus influenzae ATCC33391
Procedure: as §1

[13] = test system: Micrococcus luteus ATCC9341
Procedure: as §1

[14] = test system: Streptococcus pneumoniae ATCC6302
Procedure: as §1

[15] = test system: Moraxella (Branhamella) catarrhalis ATCC25238
Procedure: as §1

[16] = test system: Haemophilus influenzae ATCC49247
Procedure: as §1

[17] = test system: Moraxella (Branhamella) catarrhalis ATCC25240
Procedure: as §1

[18] = test system: Streptococcus agalactiae ATCC13813
Procedure: as §1

[19] = test system: Serratia marcescens ATCC13880
Procedure: as §1

[20] = test system: Streptococcus pyogenes ATCC12344
Procedure: as §1

[21] = test system: Streptococcus pyogenes ATCC12385
Procedure: as §1

[22] = test system: Enterococcus faecium ATCC19434
Procedure: as §1

[23] = test system: Pseudomonas aeruginosa ATCC27853
Procedure: as §1

[24] = test system: Streptococcus pneumoniae ATCC6306
Procedure: as §1

[25] = test system: Staphylococcus aureus ATCC6538P
Procedure: as §1

[26] = test system: Streptococcus pneumoniae ATCC6303
Procedure: as §1

[27] = test system: Escherichia coli ATCC35218
Procedure: as §1

[28] = test system: Staphylococcus epidermidis ATCC12228
Procedure: (§2) Minimum growth-inhibiting concentrations of trifluoromethionine and other antibacterial drugs on standard strains were determined by an agar plate dilution method according to the standard method of Japanese Society of Chemotherapy.
(§3) Drug solutions at a concentration 10 times as high as the maximum applicable concentration were prepared as original solutions of test drugs given in Table 2 (as to solvents used for this purpose, reference should be made also to Table 2). Serial two-fold dilution series of the original solutions were prepared at desired stages, and 1 ml each of the diluted drug solutions was added to 9 ml of media given in Table 3 to prepare drug plates. Concentration range of the individual drugs used are as follows: trifluoromethionine: 400-0.025 μg/ml (15 stages), tetracycline: 100-0.025 μg/ml (13 stages), and clarithromycin: 100-0.025 μg/ml (13 stages).
(§4) • 1) Bacterial solutions stocked at −80° C. were inoculated on agar media (as to media used, reference should be made to Table 3), and then incubated at 37° C. overnight. When desired, subculturing was conducted once more on the same agar media (by overnight incubation at 37° C.). • 2) Colonies growing on the agar media were sampled by a platinum loop, suspended in liquid media (reference should be made to Table 3) and statically incubated at 37° C. for 18 hours (preculturing). • 3) Preculturing was continued up to McFarland 0.5 (McFarland 0.5=about 10^8 CFU/ml), and then the culture broths were diluted with Muellar Hinton Broth to make 10^6 CFU/ml. 5 μl each of the diluted solutions were inoculated on the above-mentioned drug plates by an inoculator Microplanter.
(§5) Thus, bacterial solutions at about 10^8 CFU/ml can be easily prepared by use of McFarland 0.5. Bacterial solutions at such a turbidity are commercially available, but can be easily prepared. McFarland 0.5 can be obtained by adding 0.5 ml of an aqueous 0.048 mol/l barium chloride solution to 99.5 ml of 1% v/v (0.18 mol/l) sulfuric acid. • 4) The individual bacteria were incubated at 37° C. for 18-20 hours and then the growth was determined in the same manner as in Example 2 to obtain minimum growth-inhibiting concentrations.

[29] = test system: Staphylococcus epidermidis ATCC29886
Procedure: as §2, §3, §4, §5

Compound: CC[C@H]1OC(=O)[C@H](C)[C@@H](O[C@H]2C[C@@](C)(OC)[C@@H](O)[C@H](C)O2)[C@H](C)[C@@H](O[C@@H]2O[C@H](C)C[C@H](N(C)C)[C@H]2O)[C@](C)(OC)C[C@@H](C)C(=O)[C@H](C)[C@@H](O)[C@]1(C)O [CAM, Clarithromycin]
- MIC [1]: 0.1 µg/mL (≈ 0.134 µM)
- MIC [2]: 50 µg/mL (≈ 66.8 µM)
- MIC [3]: 50 µg/mL (≈ 66.8 µM)
- MIC [4]: 0.1 µg/mL (≈ 0.134 µM)
- MIC [5]: 1.56 µg/mL (≈ 2.09 µM)
- MIC [6]: 3.13 µg/mL (≈ 4.18 µM)
- MIC [7]: > 100 µg/mL
- MIC [8]: 6.25 µg/mL (≈ 8.36 µM)
- MIC [9]: 0.05 µg/mL (≈ 0.0668 µM)
- MIC [10]: 0.05 µg/mL (≈ 0.0668 µM)
- MIC [11]: 0.2 µg/mL (≈ 0.267 µM)
- MIC [12]: 6.25 µg/mL (≈ 8.36 µM)
- MIC [13]: 0.05 µg/mL (≈ 0.0668 µM)
- MIC [14]: 0.1 µg/mL (≈ 0.134 µM)
- MIC [15]: 0.1 µg/mL (≈ 0.134 µM)
- MIC [16]: 6.25 µg/mL (≈ 8.36 µM)
- MIC [17]: 0.2 µg/mL (≈ 0.267 µM)
- MIC [18]: 0.05 µg/mL (≈ 0.0668 µM)
- MIC [19]: > 100 µg/mL
- MIC [20]: 0.05 µg/mL (≈ 0.0668 µM)
- MIC [21]: 0.1 µg/mL (≈ 0.134 µM)
- MIC [22]: 1.56 µg/mL (≈ 2.09 µM)
- MIC [23]: > 100 µg/mL
- MIC [24]: 0.1 µg/mL (≈ 0.134 µM)
- MIC [25]: 0.2 µg/mL (≈ 0.267 µM)
- MIC [26]: 0.05 µg/mL (≈ 0.0668 µM)
- MIC [27]: 25 µg/mL (≈ 33.4 µM)
- MIC [28]: 0.2 µg/mL (≈ 0.267 µM)
- MIC [29]: 0.39 µg/mL (≈ 0.521 µM)

Compound: CN(C)[C@@H]1C(O)=C(C(N)=O)C(=O)[C@@]2(O)C(O)=C3C(=O)c4c(O)cccc4[C@@](C)(O)[C@H]3C[C@@H]12 [TC, Tetracycline]
- MIC [1]: 0.2 µg/mL (≈ 0.45 µM)
- MIC [2]: 1.56 µg/mL (≈ 3.51 µM)
- MIC [3]: 0.78 µg/mL (≈ 1.76 µM)
- MIC [4]: 0.2 µg/mL (≈ 0.45 µM)
- MIC [5]: 25 µg/mL (≈ 56.3 µM)
- MIC [6]: 0.39 µg/mL (≈ 0.878 µM)
- MIC [7]: 50 µg/mL (≈ 113 µM)
- MIC [8]: 0.78 µg/mL (≈ 1.76 µM)
- MIC [9]: 0.1 µg/mL (≈ 0.225 µM)
- MIC [10]: 0.1 µg/mL (≈ 0.225 µM)
- MIC [11]: 0.2 µg/mL (≈ 0.45 µM)
- MIC [12]: 0.78 µg/mL (≈ 1.76 µM)
- MIC [13]: 0.78 µg/mL (≈ 1.76 µM)
- MIC [14]: 0.2 µg/mL (≈ 0.45 µM)
- MIC [15]: 0.2 µg/mL (≈ 0.45 µM)
- MIC [16]: 25 µg/mL (≈ 56.3 µM)
- MIC [17]: 0.2 µg/mL (≈ 0.45 µM)
- MIC [18]: 0.2 µg/mL (≈ 0.45 µM)
- MIC [19]: 100 µg/mL (≈ 225 µM)
- MIC [20]: 0.2 µg/mL (≈ 0.45 µM)
- MIC [21]: 0.2 µg/mL (≈ 0.45 µM)
- MIC [22]: 0.2 µg/mL (≈ 0.45 µM)
- MIC [23]: 12.5 µg/mL (≈ 28.1 µM)
- MIC [24]: 0.2 µg/mL (≈ 0.45 µM)
- MIC [25]: 0.2 µg/mL (≈ 0.45 µM)
- MIC [26]: 0.1 µg/mL (≈ 0.225 µM)
- MIC [27]: 1.56 µg/mL (≈ 3.51 µM)
- MIC [28]: 50 µg/mL (≈ 113 µM)
- MIC [29]: 0.39 µg/mL (≈ 0.878 µM)
